Assay results as given in paper PMC4414177, “A novel orally active water-soluble inhibitor of human glutathione transferase exerts a potent and selective antitumor activity against human melanoma xenografts” (Oncotarget, 2015).

Legend:
[1] = system: SK23-MEL human melanoma cells; test: SK23-MEL cellular xenograft model, antitumor efficacy; type: in vivo, mice; details: 8 mg/kg/day i.v. or oral, q1dx5 three weeks
Method: (§1) SK23-MEL and G-361 cells were injected s.c. (in both cases, 1×10^6) into the right flank of NOD/SCID and SCID male mice, respectively. Animals were randomly divided in groups of 6 mice and treatments were started at day 10 (SK23-MEL) and 14 (G-361), when tumors were clearly palpable.
(§2) Primary tumor growth was determined for all animals by caliper measurement (minor and major axis length), three times per week, until they were sacrificed. Primary tumor volume was determined using the following equation: V (cm^3)=(α^2×β)/2 (Eq. 3)
(§3) The efficacy of the treatment was also analyzed by calculation of the percentage of Increase in Life Span (% ILS), since this analysis gives an evidence of clinical potency. Survival endpoint for each animal was fixed at the day when tumor volume reached 1.0 cm^3 (A375) or 0.4 cm^3 (SK23-MEL and G-361), and data were used to plot the relative Kaplan-Meier curves. Treatment efficacy was then evaluated by comparing the Median Survival Time (MST) of treated group with the MST of control group, and expressed as percentage of ILS: % ILS=[100×(MSTtreated group)/(MSTcontrol group)]−100 (Eq. 4)
(§4) Treatment was considered effective when % ILS > 20%.

[2] = system: SK23-MEL tumors; test: Histological analysis of SK23-MEL tumors; type: in vivo, mice; details: SK23-MEL xenografts, MC3181-treated
Description: (§5) At sacrifice, tumors were removed, formalin-fixed and paraffin embedded. All internal organs were fixed and paraffin embedded for the morphological study to evaluate drug effects in normal tissues. Three μm-thick sections were cut and stained with haematoxylin and eosin (H&E). Two observers blindly classified the tissues for necrotic areas, evaluated as percent of total area, mitosis number in 10 high power field randomly selected away from the ischemic necrosis.

[3] = system: SK23-MEL cells; test: Tyrosinase activity; type: cell-based, human; details: 7 μM, 48 hrs, p < 0.005
Method: Cells (1×10^6) were lysed in 1M NaOH at 100°C, for 1 hour and then centrifuged at 15,000 g, for 20 minutes. […] Tyrosinase activity was examined by measuring spectrophotometrically at 475 nm the rate of L-DOPA oxidation to dopachrome over 1 hour at 37°C. Cells [1×10^6 in 40 μl of 20 mM potassium phosphate buffer (pH 6.8) containing 1% Triton X-100 and 1 mM PMSF] were disrupted by freezing and thawing and centrifuged at 15,000 g for 20 minutes at 4°C. The assay was started by addition of 100 μl of 2 mg/ml L-DOPA to 40 μl of supernatant. Tyrosinase activity was expressed as change in absorbance, per hour, per 10^6 cells.

[4] = system: SK23-MEL cells; test: Caspase-3 activity in cell lysates; type: cell-based, human; details: 7 μM
Method: (§6) Apoptosis was confirmed by measuring caspase-3 activity, at 25°C, in total cell lysates, using the model fluorescent peptide substrate N-Acetyl-Asp-Glu-Val-Asp-7-amido-4-trifluoromethylcoumarin (Ac-DEVD-AFC). […] Caspase activity was expressed as change in fluorescence per min, per 10^6 cells.

[5] = system: A375 cells; test: Caspase-3 activity in cell lysates; type: cell-based, human; details: A375, 10 μM
Method: as §6

[6] = system: IST-MEL-1; test: Cell growth inhibition, SRB assay; type: cell-based; details: Homo sapiens, IST-MEL-1, 48 h
Method: (§7) The IC50 values for each compound were then evaluated by the SRB assay.

[7] = system: A375; test: Cell growth inhibition, SRB assay; type: cell-based; details: Homo sapiens, A-375, A375, 48 h
Method: as §7

[8] = system: MALME-3M; test: Cell growth inhibition, SRB assay; type: cell-based; details: Homo sapiens, 48 h
Method: as §7

[9] = system: G-361; test: Cell growth inhibition, SRB assay; type: cell-based; details: Homo sapiens, G-361, 48 h
Method: as §7

[10] = system: SK23-MEL; test: Cell growth inhibition, SRB assay; type: cell-based; details: Homo sapiens, 48 h
Method: as §7

[11] = system: G-361 human melanoma cells; test: G-361 cellular xenograft model, antitumor efficacy; type: in vivo, mice; details: G-361 xenograft
Method: as §1, §2, §3, §4

[12] = system: A375 tumor xenografts; test: Immunohistochemical analysis of A375 tumor xenografts; type: in vivo, mice
Description: as §5
Briefly, 3-μm-thick sections were pre-treated with EDTA citrate pH 7.8, for 30 min, at 95°C and then incubated respectively with rabbit monoclonal anti-Phospho-SAPK/JNK (1:100, 81E11, Cell Signaling, Danvers Massachusetts, USA) and rabbit polyclonal anti-Caspase3, for 60 min (1:100, PA5-16335, ThermoFisher Scientific, Walthman, MA, USA). Washing were performed with PBS 4% + Tween20, pH 7.6, by UCS diagnostic.

[13] = system: SK23-MEL cells; test: Cell morphology (phase-contrast microscopy); type: cell-based, human; details: 7 μM, 48 hrs
[14] = system: A375 cells; test: JNK phospho-activation (Western blot); type: cell-based, human; details: A375, 10 μM
Method: The cell pellet obtained at each time point was lysed as previously reported and the protein concentration was determined using the Lowry colorimetric assay. Proteins (40 μg) were loaded on 12% SDS-polyacrylamide gel and transferred onto a PVDF membrane (GE Healthcare, Chalfont St. Giles, UK). Anti-P-JNK (Thr183 Tyr185) (Cell Signaling, Beverly, MA, USA), anti-JNK (Cell Signaling) and anti-β actin were used as primary antibodies. […] The ImageJ software was used to analyze the band intensities.

[15] = system: five cultured human melanoma cell lines; test: Cell growth inhibition, SRB assay, whole panel; type: cell-based; details: range over A375, G-361, MALME-3M, IST-MEL-1, SK23-MEL
Method: as §7

[16] = system: SK23-MEL cells; test: Cell cycle analysis (PI, flow cytometry); type: cell-based, human; details: 7 μM
Method: (§8) A375 and SK23-MEL cells, were fixed with 70% ethanol overnight, stained with PI staining buffer ([…] and 1% Triton X-100) and analyzed by a FACSCalibur (BD Bioscence, San Jose, CA, USA). The percentage of early apoptotic, late apoptotic, and necrotic cells was determined by simultaneous staining of cells with PI (2 μg/ml) and Annexin V-FITC (0.5 μg/ml) (Sigma Aldrich), according to manufacturer's protocol. Flow cytometric data were analyzed by the FlowJo 8.8.6 software (Tree Stare, Inc, Ashland, OR, USA).

[17] = system: A375 cells; test: Cell cycle analysis (PI, flow cytometry); type: cell-based, human; details: A375, 10 μM
Method: as §8

[18] = system: SK23-MEL cells; test: Annexin V / PI staining (flow cytometry); type: cell-based, human; details: 48 hrs of treatment
Method: as §8

## O=[N+]([O-])c1ccc(SCCOCCOCCO)c2nonc12 [MC3181, 2-(2-(2-((7-nitrobenzo[c][1,2,5]oxadiazol-4-yl)thio)ethoxy)ethoxy)ethanol]
[1]
  ILS: < 20%
  tumor growth: a certain degree of delay in tumor growth
[2]
  tumor histology: melanin production
[3]
  tyrosinase activity: significant increase
[4]
  caspase-3 activation: negligible increase of proteolitic activity
[5]
  caspase-3 activation: strong caspase-3 activity
[6]
  IC50: 0.92 ± 0.07 µM
[7]
  IC50: 2.31 ± 0.04 µM
[8]
  IC50: 2.42 ± 0.16 µM
[9]
  IC50: 0.78 ± 0.04 µM
[10]
  IC50: 1.79 ± 0.05 µM
[11]; 8 mg/kg/day oral
  animals still alive at the end of the observation period: 50%
  disease course: stabilization and regression of the disease in half of the treated mice
[11]; 8 mg/kg/day, both administration routes (i.v., oral)
  tumor growth: significant delay in tumor growth
[12]; A375 tumor xenografts, data not shown
  higher apoptosis compared to untreated controls: about 20%
[12]; A375 xenografts, 8 mg/kg, P-JNK 6 hrs after treatment, caspase-3 at end of treatment
  JNK phosphorylation and caspase-3 in tumors: significant increase of JNK phosphorylation and caspase-3 activity
[13]
  cell morphology: clear morphological changes
[14]
  JNK phosphorylation: sustained increase in JNK phosphorylation
  start of the increase in JNK phosphorylation after addition of the drug: ≤ 1 h
[15]
  IC50: 0.8 to 2.4 µM
[16]; 24 hrs
  increase in the number of cells in sub-G1 phase: about 10%
[16]; 48 hrs
  increase in the number of cells in sub-G1 phase: ~20%
[17]; 24 hrs
  increase in the amount of cells in the sub-G1 phase: about 27%
[17]; 48 hrs
  increase in the amount of cells in the sub-G1 phase: ~36%
[18]
  percentage of total apoptotic cells: about 20%
